Data as given in patent US7365088B2, “Indazole-derivatives as factor Xa inhibitors” (Sanofi-Aventis Deutschland GmbH, priority 2003, dated 2008).

The compounds below were run against human factor Xa (Homo sapiens, UniProt P00742) (assay: Factor Xa assay (chromogenic, substrate S-2765)).
Chain of human factor Xa (P00742 235-488 limits assumed): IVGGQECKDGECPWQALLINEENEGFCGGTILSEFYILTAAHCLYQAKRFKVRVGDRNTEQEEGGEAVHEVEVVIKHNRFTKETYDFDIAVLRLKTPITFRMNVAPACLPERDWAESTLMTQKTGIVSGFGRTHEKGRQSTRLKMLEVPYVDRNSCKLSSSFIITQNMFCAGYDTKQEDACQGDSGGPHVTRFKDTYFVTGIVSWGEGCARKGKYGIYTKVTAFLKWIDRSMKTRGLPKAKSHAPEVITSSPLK
Chain of human factor Xa (P00742 41-179 partner limits assumed): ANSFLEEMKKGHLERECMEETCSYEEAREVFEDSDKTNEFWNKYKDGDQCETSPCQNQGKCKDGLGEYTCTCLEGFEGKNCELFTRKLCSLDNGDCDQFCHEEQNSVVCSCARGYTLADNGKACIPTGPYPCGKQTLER

| Ki [nM] | SMILES |
| --- | --- |
| 82 | CCOC(=O)OC(C)OC(=O)c1ccc2c(c1)c(C(=O)NC1CCN(C(C)C)CC1)nn2Cc1cc(-c2ccc(Cl)s2)on1 (stereo not drawn) [Example 9, 1-[5-(5-Chloro-thiophen-2-yl)-isoxazol-3-ylmethyl]-3-(1-isopropyl-piperidin-4-ylcarbamoyl)-1H-indazole-5-carboxylic acid 1-ethoxycarbonyloxy-ethyl ester] |
| 33 | CC(C)N1CCC(NC(=O)c2nn(Cc3cc(-c4ccc(Cl)s4)on3)c3ccc(C(=O)NCC(N)=O)cc23)CC1 [Example 21, 1-[5-(5-Chloro-thiophen-2-yl)-isoxazol-3-ylmethyl]-1H-indazole-3,5-dicarboxylic acid 5-carbamoylmethyl-amide 3-[(1-isopropyl-piperidin-4-yl)-amide]] |
| 51 | CC(C)N1CCC(NC(=O)c2nn(Cc3cc(-c4ccc(Cl)s4)on3)c3ccc(C(=O)NC(C)(CO)CO)cc23)CC1 [Example 24, 1-[5-(5-Chloro-thiophen-2-yl)-isoxazol-3-ylmethyl]-1H-indazole-3,5-dicarboxylic acid 5-[(2-hydroxy-1-hydroxymethyl-1-methyl-ethyl)-amide]3-[(1-isopropyl-piperidin-4-yl)-amide]] |
